Columns and labels:
NQO1 = test: Nrf2 target gene induction in MDA-MB-435 cells: NQO1; format: cell-based, human; settings: 250 nM
[1] = tested on: IFNγ-induced NO production in RAW264.7 macrophages; test: Suppression of IFNγ-induced NO production (Griess reagent); format: cell-based, mouse; settings: 2 h pre-treatment, then 20 ng/ml IFNγ for 24 hours
Procedure, shortened: (§1)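 Mouse RAW264.7 macrophages pre-treated 2 h with compound (nM concentrations) or DMSO, then stimulated with 20 ng/ml recombinant mouse IFNγ for 24 h. Nitrite in medium measured by Griess reagent; viability by WST-1.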

RAW264.7 macrophages = test: Cell viability, WST-1 reagent; format: cell-based, mouse; settings: 2 h pre-treatment, then 20 ng/ml IFNγ for 24 hours
Procedure, shortened: as §1

γ-GCS = test: Nrf2 target gene induction in MDA-MB-435 cells, qPCR: γ-GCS; format: cell-based, human
Description: (§2) FIGS. 44, 46 and 47—Induction of HO-1, TrxR1 and γ-GCS. FIGS. 44A-C, 46A-C, 47A-C: MDA-MB-435 human melanoma cells were treated with vehicle (DMSO) or the indicated compounds (400 nM) for 16 hours. HO-1, thioredoxin reductase-1 (TrxR1), and γ-glutamylcysteine synthetase (γ-GCS) mRNA levels were quantified using qPCR and were normalized relative to a DMSO-treated sample run in parallel. Values are averages of duplicate wells. FIGS. 44D, 46D, 47D: MDA-MB-435 cells were treated with vehicle (DMSO) or the indicated compounds at 400 nM for 16 hours. HO-1, TrxR1 and actin protein levels were assayed by immunoblotting.
(§3) FIG. 45. Induction of HO-1, TrxR1 and γ-GCS. FIGS. 45 A-C: MDA-MB-435 cells were treated with vehicle (DMSO) or the indicated compounds at 160 nM for 16 hours. HO-1, TrxR1, and γ-GCS mRNA levels were quantified by qPCR and were normalized relative to a DMSO-treated sample run in parallel. Values are averages of duplicate wells. FIGS. 44D, 46D, 47D: MDA-MB-435 cells were treated with vehicle (DMSO) or the indicated compounds at 160 nM for 16 hours. HO-1, TrxR1 and actin protein levels were assayed by immunoblotting.
(§4) MDA-MB-435 human melanoma cells were treated with vehicle (DMSO) or the indicated compounds and concentrations for 16 hours. HO-1, thioredoxin reductase-1 (TrxR1), γ-glutamylcysteine synthetase (γ-GCS), and ferritin heavy chain mRNA levels were quantified using qPCR and were normalized relative to a DMSO-treated sample run in parallel. Values are averages of duplicate wells. Primer sequences are as follows.

HO-1 = test: Nrf2 target gene induction in MDA-MB-435 cells, qPCR: HO-1; format: cell-based, human
Description: FIG. 43. Induction of HO-1. FIGS. 43A and 43B: MDA-MB-435 human melanoma cells were treated with vehicle (DMSO) or the indicated compounds and concentrations for 16 hours. HO-1 mRNA levels were quantified using qPCR and were normalized relative to a DMSO-treated sample run in parallel. Values are averages of duplicate wells. FIG. 43C: MDA-MB-435 cells were treated with vehicle (DMSO) or the indicated compounds at 400 nM for 16 hours. HO-1, TrxR1 and actin protein levels were assayed by immunoblotting. Actin served as a loading control.
as §2, §3, §4

TrxR1 = test: Nrf2 target gene induction in MDA-MB-435 cells, qPCR: TrxR1; format: cell-based, human; settings: 16 hours
Description: as §2, §3, §4

iNOS [2] = test: Suppression of iNOS mRNA induction, qPCR; format: cell-based, mouse; settings: RAW264.7; 2 h pre-treatment, 10 ng/ml IFNγ for 2 hours
Description: (§5) FIG. 35. Suppression of iNOS mRNA induction. RAW264.7 mouse macrophages were pre-treated for 2 hours with compounds at the indicated concentrations and subsequently stimulated with 10 ng/ml IFNγ for an additional 2 hours. mRNA levels of iNOS were quantified by qPCR and are shown relative to the vehicle-treated IFNγ-stimulated sample which was normalized to a value of 1. Values are averages of duplicate PCR reactions, each with triplicate wells.
as §5, with “36.” for “35.”
as §5, with “37.” for “35.”
as §5, with “RAW264.7” for “FIG. 35. Suppression of iNOS mRNA induction. RAW264.7”, “macrophage cells” for “macrophages”

iNOS [3] = test: iNOS Western blot in RAW264.7 mouse macrophages; format: cell-based; settings: compounds at 300 nM for 2 hours, 24 hour induction by IFNγ, read-out: iNOS suppr. WB
Description: FIGS. 38-40. iNOS Western Blot in RAW264.7 mouse macrophages. Cells were pretreated by compounds at 300 nM for 2 hours, followed by 24 hour induction by IFNγ (20 ng/ml). […]

[4] = TP levels in mouse brain after feeding in diet, LC/MS; format: in vivo; settings: CD-1 mice, 200 or 400 mg/kg diet for 3.5 days
Description: FIG. 48. […] CD-1 mice were fed either 200 or 400 mg/kg diet of either TP-319 or TP-500 for 3.5 days, and TP levels in the brains of the mice were analyzed by LC/MS. The structures of TP-319 and TP-500 are shown herein.

With “N-((4aS,6aR,6bR,8aR,12aR,12bR,14aR,14bS)-11-cyano-2,2,6a,6b,9,9,12a-heptamethyl-10,14-dioxo-1,2,3,4,4a,5,6,6a,6b,7,8,8a,9,10,12a,12b,13,14,14a,14b-icosahydropicen-4a-yl)-2,2,2-trifluoroethanesulfonamide [Compound 63254]” the NQO1 induction (NQO1) was 1.7 fold induction above DMSO control, the IC50 [1] was ~25 nM and the IC50 (RAW264.7 macrophages) was > 200 nM. For the same compound, the γ-GCS induction (γ-GCS; 250 nM) was 3 fold induction above DMSO control and the HO-1 induction (HO-1; 250 nM) was 2 fold induction above DMSO control.
For `CC1(C)CC[C@]2(O)CC[C@]3(C)[C@H](C(=O)CC4[C@@]5(C)C=C(C#N)C(=O)C(C)(C)[C@@H]5CC[C@]43C)[C@@H]2C1` (stereo partly drawn) [Compound 63208, (4aR,6aR,6bR,8aS,12aS,12bR,14bR)-8a-hydroxy-4,4,6a,6b,11,11,14b-heptamethyl-3,13-dioxo-3,4,4a,5,6,6a,6b,7,8,8a,9,10,11,12,12a,12b,13,14,14a,14b-icosahydropicene-2-carbonitrile], the NQO1 induction (NQO1) was 1.7 fold induction above DMSO control, the γ-GCS induction (γ-GCS; 250 nM) was 3.2 fold induction above DMSO control and the HO-1 induction (HO-1; 250 nM) was 1.1 fold induction above DMSO control.
For `CC1(C)CC[C@]2(NS(C)(=O)=O)CC[C@]3(C)[C@H](C(=O)C[C@@H]4[C@@]5(C)C=C(C#N)C(=O)C(C)(C)[C@@H]5CC[C@]43C)[C@@H]2C1` [Compound 63215, N-((4aS,6aR,6bR,8aR,12aR,12bR,14aR,14bS)-11-cyano-2,2,6a,6b,9,9,12a-heptamethyl-10,14-dioxo-1,2,3,4,4a,5,6,6a,6b,7,8,8a,9,10,12a,12b,13,14,14a,14b-icosahydropicen-4a-yl)methanesulfonamide], the NQO1 induction (NQO1) was 1.7 fold induction above DMSO control, the IC50 ([1]; Mus musculus) was ~15 nM and the IC50 (RAW264.7 macrophages; Mus musculus) was > 200 nM. The γ-GCS induction (γ-GCS; 250 nM) was 3.8 fold induction above DMSO control, the γ-GCS induction (γ-GCS; 400 nM, 16 hours) was 21% of induction observed for RTA 402 and the TrxR1 induction (TrxR1; 400 nM) was 36% of induction observed for RTA 402. For the same compound, the HO-1 induction (HO-1; 250 nM) was 1.7 fold induction above DMSO control and the HO-1 induction (HO-1; 400 nM, 16 hours) was 1% of induction observed for RTA 402.
With `CC1(C)CC[C@]2(N)CC[C@]3(C)[C@H](C(=O)C[C@@H]4[C@@]5(C)C=C(C#N)C(=O)C(C)(C)[C@@H]5CC[C@]43C)[C@@H]2C1` [Compound 63198, (4aR,6aR,6bR,8aS,12aS,12bR,14aR,14bR)-8a-amino-4,4,6a,6b,11,11,14b-heptamethyl-3,13-dioxo-3,4,4a,5,6,6a,6b,7,8,8a,9,10,11,12,12a,12b,13,14,14a,14b-icosahydropicene-2-carbonitrile] the NQO1 induction (NQO1) was 1.8 fold induction above DMSO control, the IC50 ([1]; Mus musculus) was ~30 nM and the IC50 (RAW264.7 macrophages; Mus musculus) was > 200 nM. For the same compound, the γ-GCS induction (γ-GCS; 250 nM) was 2.8 fold induction above DMSO control, the TrxR1 induction (TrxR1; 400 nM) was 71% of induction observed for RTA 402 and the HO-1 induction (HO-1; 250 nM) was 1.4 fold induction above DMSO control. The HO-1 induction (HO-1; 400 nM, 16 hours) was 2% of induction observed for RTA 402.
For `CC1(C)CC[C@]2(NS(=O)(=O)c3ccccc3)CC[C@]3(C)[C@H](C(=O)C=C4[C@@]5(C)C=C(C#N)C(=O)C(C)(C)[C@@H]5CC[C@]43C)[C@@H]2C1` [Compound 63192, N-((4aS,6aR,6bS,8aR,12aS,14aR,14bS)-11-cyano-2,2,6a,6b,9,9,12a-heptamethyl-10,14-dioxo-1,2,3,4,4a,5,6,6a,6b,7,8,8a,9,10,12a,14,14a,14b-octadecahydropicen-4a-yl)benzenesulfonamide], the IC50 ([1]; Mus musculus) was 2.8 nM, the IC50 (RAW264.7 macrophages; Mus musculus) was 150 nM and the γ-GCS induction (γ-GCS; 160 nM, 16 hours) was 9% of induction observed for RTA 402. For the same compound, the TrxR1 induction (TrxR1; 160 nM) was 14% of induction observed for RTA 402, the “iNOS suppr. qPCR” value (iNOS [2]) was ~60% and the HO-1 induction (HO-1; 160 nM, 16 hours) was 1% of induction observed for RTA 402. The inhibition at 0.3 µM (iNOS [3]) was > 90%.
For `C=CC(=O)N[C@]12CCC(C)(C)C[C@H]1[C@H]1C(=O)C=C3[C@@]4(C)C=C(C#N)C(=O)C(C)(C)[C@@H]4CC[C@@]3(C)[C@]1(C)CC2` [Compound 63183, N-((4aS,6aR,6bS,8aR,12aS,14aR,14bS)-11-cyano-2,2,6a,6b,9,9,12a-heptamethyl-10,14-dioxo-1,2,3,4,4a,5,6,6a,6b,7,8,8a,9,10,12a,14,14a,14b-octadecahydropicen-4a-yl)acrylamide], the IC50 ([1]; Mus musculus) was 4 nM, the IC50 (RAW264.7 macrophages; Mus musculus) was 150 nM and the γ-GCS induction (γ-GCS; 160 nM, 16 hours) was 55% of induction observed for RTA 402. For the same compound, the TrxR1 induction (TrxR1; 160 nM) was 71% of induction observed for RTA 402, the “iNOS suppr. qPCR” value (iNOS [2]) was 50% and the HO-1 induction (HO-1; 160 nM, 16 hours) was 28% of induction observed for RTA 402. For the same compound, the inhibition at 0.3 µM (iNOS [3]) was ~90%.
In the case of `CC1(C)CC[C@]2(NS(=O)(=O)C3CC3)CC[C@]3(C)[C@H](C(=O)C=C4[C@@]5(C)C=C(C#N)C(=O)C(C)(C)[C@@H]5CC[C@]43C)[C@@H]2C1` [Compound 63243, N-((4aS,6aR,6bS,8aR,12aS,14aR,14bS)-11-cyano-2,2,6a,6b,9,9,12a-heptamethyl-10,14-dioxo-1,2,3,4,4a,5,6,6a,6b,7,8,8a,9,10,12a,14,14a,14b-octadecahydropicen-4a-yl)cyclopropanesulfonamide], the IC50 ([1]; Mus musculus) is reported as 2.9 nM, the IC50 (RAW264.7 macrophages; Mus musculus) is reported as 150 nM and the γ-GCS induction (γ-GCS; 160 nM, 16 hours) is reported as 36% of induction observed for RTA 402. For the same compound, the TrxR1 induction (TrxR1; 160 nM) was 57% of induction observed for RTA 402, the “iNOS suppr. qPCR” value (iNOS [2]) was 50% and the HO-1 induction (HO-1; 160 nM, 16 hours) was 25% of induction observed for RTA 402. It also gave an inhibition at 0.3 µM (iNOS [3]) of ~90%.
With `CC1(C)CC[C@]2(C(=O)NCC(F)(F)F)CC[C@]3(C)[C@H](C(=O)C=C4[C@@]5(C)C=C(C#N)C(=O)C(C)(C)[C@@H]5CC[C@]43C)[C@@H]2C1` [CDDO-TFEA] the “TP levels in the brains of the mice” value [4] was “Higher Levels in Mouse Brain than CDDO-EA”.
With `CC1(C)CC[C@]2(N)CC[C@]3(C)[C@H](C(=O)C=C4[C@@]5(C)C=C(C#N)C(=O)C(C)(C)[C@@H]5CC[C@]43C)[C@@H]2C1` [Compound 63169, (4aR,6aS,6bR,8aS,12aS,12bR,14bS)-8a-amino-4,4,6a,6b,11,11,14b-heptamethyl-3,13-dioxo-3,4,4a,5,6,6a,6b,7,8,8a,9,10,11,12,12a,12b,13,14b-octadecahydropicene-2-carbonitrile] the IC50 ([1]; Mus musculus) was 3.6 nM, the IC50 (RAW264.7 macrophages; Mus musculus) was > 200 nM and the γ-GCS induction (γ-GCS; 160 nM, 16 hours) was 73% of induction observed for RTA 402. The TrxR1 induction (TrxR1; 160 nM) was 129% of induction observed for RTA 402, the “iNOS suppr. qPCR” value (iNOS [2]) was ~50% and the HO-1 induction (HO-1; 160 nM, 16 hours) was 2% of induction observed for RTA 402. It also gave an inhibition at 0.3 µM (iNOS [3]) of ~90%.

Reference: patent US9670147B2, “Antioxidant inflammation modulators: oleanolic acid derivatives with amino and other modifications at C-17” (REATA PHARMACEUTICALS, INC., priority 2008, dated 2017)
